This note sets out measurements from publication PMC8715907 (Chembiochem : a European journal of chemical biology, 2020).

Assay [1] has as its target T1, RECON (mRECON) (Mus musculus, UniProt Q8VC28).
T1 sequence (Q8VC28 1-323): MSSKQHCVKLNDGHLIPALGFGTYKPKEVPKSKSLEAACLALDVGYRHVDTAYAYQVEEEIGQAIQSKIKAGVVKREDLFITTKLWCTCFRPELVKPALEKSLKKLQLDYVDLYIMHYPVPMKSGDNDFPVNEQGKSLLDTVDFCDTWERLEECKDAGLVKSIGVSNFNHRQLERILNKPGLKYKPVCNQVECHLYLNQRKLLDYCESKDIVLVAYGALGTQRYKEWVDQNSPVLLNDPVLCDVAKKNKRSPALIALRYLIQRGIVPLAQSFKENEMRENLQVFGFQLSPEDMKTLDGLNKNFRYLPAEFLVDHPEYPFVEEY
The assay is described as follows: DRaCALA. The assay is classed as binding.

The target of assay [2] is CnpB (Mycobacterium tuberculosis, UniProt P71615). The assay is described as follows: DRaCALA, serial dilutions of protein. The assay is classed as binding.
Chain of CnpB (P71615 whole entry): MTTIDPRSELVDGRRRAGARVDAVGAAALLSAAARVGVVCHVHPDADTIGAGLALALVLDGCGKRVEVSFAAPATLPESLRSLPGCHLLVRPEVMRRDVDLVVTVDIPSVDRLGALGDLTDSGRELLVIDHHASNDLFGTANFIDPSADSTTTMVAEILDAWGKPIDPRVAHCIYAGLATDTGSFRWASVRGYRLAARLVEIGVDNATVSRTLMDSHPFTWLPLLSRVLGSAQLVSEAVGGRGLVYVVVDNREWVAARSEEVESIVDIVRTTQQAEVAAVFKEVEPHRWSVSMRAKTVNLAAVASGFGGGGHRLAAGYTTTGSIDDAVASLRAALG

In the case of `Nc1ncnc2c1ncn2[C@@H]1O[C@@H]2COP(=O)(O)O[C@H]3[C@@H](O)[C@H](n4cnc5c(N)ncnc54)O[C@@H]3COP(=O)(O)O[C@H]2[C@H]1O` [3’3’-c-di-AMP], the results for the dissociation constant Kd in assay [1] and in assay [2] were 68 nM and around 3000 nM, respectively.
